Assay results reported in patent US8569292B2, “Cyclic inhibitors of 11β-hydroxysteroid dehydrogenase 1” (Vitae Pharmaceuticals, Inc., priority 2008, dated 2013).

Columns and labels:
[1] = biological target: T1, CYP2C9 (Homo sapiens, UniProt P11712); experiment: Biological Test Example 9: CYP2C9 inhibition (Invitrogen kit, fluorogenic OOMR); type: in vitro ADME
T1 construct: purchased Invitrogen 2859; host or cells: insect cells infected with baculovirus (microsomes)

[2] = biological target: T2, 11β-HSD1 (Homo sapiens, UniProt P28845); experiment: biochemical; conditions: for inhibition at 0.1 µM: read-out: Average % inhibition at 100 nM
[3] = biological target: T2, 11β-HSD1; experiment: Biological Test Example 4: microsomal 11β-HSD1 in the presence of 50% human plasma; conditions: for Shift: IC50 in Test Example 4 divided by IC50 in Test Example 1
[4] = Biological Test Example 1 IC50 (nM)
[5] = IC50 Range, Biological Test Example 1

T2 sequence (P28845 whole entry): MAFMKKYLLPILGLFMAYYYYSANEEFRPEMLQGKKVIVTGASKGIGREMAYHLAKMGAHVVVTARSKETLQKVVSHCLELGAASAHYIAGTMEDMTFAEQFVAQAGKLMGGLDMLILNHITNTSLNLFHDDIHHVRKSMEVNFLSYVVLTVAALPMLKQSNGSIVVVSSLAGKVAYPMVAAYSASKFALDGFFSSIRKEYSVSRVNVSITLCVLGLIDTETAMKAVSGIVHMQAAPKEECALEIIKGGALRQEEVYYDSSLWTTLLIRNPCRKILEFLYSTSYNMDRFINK
T1 sequence (P11712 whole entry): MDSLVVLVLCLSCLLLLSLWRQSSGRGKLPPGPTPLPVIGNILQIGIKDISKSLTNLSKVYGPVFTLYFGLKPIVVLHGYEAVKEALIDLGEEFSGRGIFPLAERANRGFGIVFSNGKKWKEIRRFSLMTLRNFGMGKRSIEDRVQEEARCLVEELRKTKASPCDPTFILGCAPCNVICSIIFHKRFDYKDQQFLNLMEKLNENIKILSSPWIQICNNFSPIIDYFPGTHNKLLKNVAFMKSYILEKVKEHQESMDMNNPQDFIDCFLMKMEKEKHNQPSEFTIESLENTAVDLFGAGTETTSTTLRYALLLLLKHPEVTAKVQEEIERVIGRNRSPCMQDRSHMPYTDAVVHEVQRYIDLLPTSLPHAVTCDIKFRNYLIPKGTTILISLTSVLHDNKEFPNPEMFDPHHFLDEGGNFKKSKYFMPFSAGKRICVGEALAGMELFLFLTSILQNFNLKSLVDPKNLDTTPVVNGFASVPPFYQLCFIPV

Compound | IC50 [1] [µM] | IC50 [2, 4] [nM] | IC50 [2, 5] [nM] | inhibition at 0.1 µM [2] [%] | IC50 [3] [µM] | Shift [3]
COc1ccc(-c2ccc([C@H](C)N3CC[C@](CCCNS(C)(=O)=O)(c4ccc(F)cc4)OC3=O)cc2)cn1 [EXAMPLE 67, N-(3-((R)-6-(4-fluorophenyl)-3-((S)-1-(4-(6-methoxypyridin-3-yl)phenyl)ethyl)-2-oxo-1,3-oxazinan-6-yl)propyl)methanesulfonamide] | 3.8 | 0.7 | < 100 | 101 | 0.0067 | 9.9
C[C@@H](c1ccc(-c2cncc(Cl)c2)cc1)N1CC[C@](CCCO)(c2ccc(F)cc2)OC1=O [EXAMPLE 69, (R)-3-((S)-1-(4-(5-chloropyridin-3-yl)phenyl)ethyl)-6-(4-fluoroPhenyl)-6-(3-hydroxypropyl)-1,3-oxazinan-2-one] | 2.3 | 0.6 | < 100 | 98.3 | 0.0063 | 9.8
Cc1nc(C)c(-c2ccc([C@H](C)N3CC[C@](CCCO)(c4ccc(F)cc4)OC3=O)cc2)s1 [EXAMPLE 83, (R)-3-((S)-1-(4-(2,4-dimethylthiazol-5-yl)phenyl)ethyl)-6-(4-fluorophenyl)-6-(3-hydroxypropyl)-1,3-oxazinan-2-one] | 3.9 | 1 | < 100 | 94.7 | 0.0088 | 8.9
C[C@@H](c1ccc(-c2ccccn2)cc1)N1CC[C@](CCCNS(C)(=O)=O)(c2ccccc2)OC1=O [EXAMPLE 89, N-(3-((R)-2-oxo-6-phenyl-3-((S)-1-(4-(pyridin-2-yl)phenyl)ethyl)-1,3-oxazinan-6-yl)propyl)methanesulfonamide] | 13.3 | 0.6 | < 100 | 98.9 | 0.0062 | 10.5
C[C@@H](c1ccc(-c2cccnc2)cc1)N1CC[C@](CCCNS(C)(=O)=O)(c2ccccc2)OC1=O [EXAMPLE 91, N-(3-((R)-2-oxo-6-phenyl-3-((S)-1-(4-(pyridin-3-yl)phenyl)ethyl)-1,3-oxazinan-6-yl)propyl)methanesulfonamide] | 17.3 | 1.4 | < 100 | 90.2 | 0.0137 | 
COc1ccc(-c2ccc([C@H](C)N3CC[C@](CCCNS(C)(=O)=O)(c4ccccc4)OC3=O)cc2)cn1 [EXAMPLE 94, N-(3-((R)-3-((S)-1-(4-(6-methoxypyridin-3-yl)phenyl)ethyl)-2-oxo-6-phenyl-1,3-oxazinan-6-yl)propyl)methanesulfonamide] | 4.5 | 0.5 | < 100 | 98.7 | 0.005 | 11.0
C[C@@H](c1ccc(-c2ccn(C)n2)cc1)N1CC[C@](CCCO)(c2ccccc2)OC1=O [EXAMPLE 100, (R)-6-(3-hydroxypropyl)-3-((S)-1-(4-(1-methyl-1H-pyrazol-3-yl)phenyl)ethyl)-6-phenyl-1,3-oxazinan-2-one] | 4.5 | 1.2 | < 100 | 93.1 | 0.006 | 4.8
C[C@@H](c1ccc(-c2ncccn2)cc1)N1CC[C@](CCCO)(c2ccc(F)cc2)OC1=O [EXAMPLE 113, (R)-6-(4-fluorophenyl)-6-(3-hydroxypropyl)-3-((S)-1-(4-(pyrimidin-2-yl)phenyl)ethyl)-1,3-oxazinan-2-one] | 2.9 | 7.4 | < 100 | 92.4 | 0.0228 | 3.1
Cc1cc(-c2ccc([C@H](C)N3CC[C@](CC4(O)CC4)(c4ccc(F)cc4)OC3=O)cc2)ccn1 [EXAMPLE 115, (S)-6-(4-fluorophenyl)-6-((1-hydroxycyclopropyl)methyl)-3-((S)-1-(4-(2-methylpyridin-4-yl)phenyl)ethyl)-1,3-oxazinan-2-one] | 4.4 | 1 | < 100 | 95.1 | 0.0103 | 10.2
Cc1cc(-c2ccc([C@H](C)N3CC[C@](CC(C)(C)C#N)(c4ccc(F)cc4)OC3=O)cc2)ccn1 [EXAMPLE 116, 3-((R)-6-(4-fluorophenyl)-3-((S)-1-(4-(2-methylpyridin-4-yl)phenyl)ethyl)-2-oxo-1,3-oxazinan-6-yl)-2,2-dimethylpropanenitrile] | 5.3 | 0.7 | < 100 | 99.6 | 0.0037 | 5.1
Cc1cc(-c2ccc([C@H](C)N3CC[C@](CCCO)(c4ccccc4)OC3=O)cc2)cc(C)[n+]1[O-] [EXAMPLE 120, 4-(4-((S)-1-((R)-6-(3-hydroxypropyl)-2-oxo-6-phenyl-1,3-oxazinan-3-yl)ethyl)phenyl)-2,6-dimethylpyridine 1-oxide] | 4.7 | 6.7 | < 100 | 93.1 | 0.0242 | 3.6
Cc1cc(-c2ccc([C@H](C)N3CC[C@](CC(C)(C)O)(c4ccccc4)OC3=O)cc2)cc(C)[n+]1[O-] [EXAMPLE 121, 4-(4-((S)-1-((S)-6-(2-hydroxy-2-methylpropyl)-2-oxo-6-phenyl-1,3-oxazinan-3-yl)ethyl)phenyl)-2,6-dimethylpyridine 1-oxide] | 4.8 | 2.3 | < 100 | 97.3 | 0.0075 | 
Cc1cc(-c2ccc([C@H](C)N3CC[C@](CC(C)(C)O)(c4ccc(F)cc4)OC3=O)cc2)cc(C)[n+]1[O-] [EXAMPLE 123, 4-(4-((S)-1-((S)-6-(4-fluorophenyl)-6-(2-hydroxy-2-methylpropyl)-2-oxo-1,3-oxazinan-3-yl)ethyl)phenyl)-2,6-dimethylpyridine 1-oxide] | 9.1 | 6.6 | < 100 | 93.6 | 0.0111 | 1.7
C[C@@H](c1ccc(-c2ccnc(N)c2)cc1)N1CC[C@](CCCO)(c2ccccc2)OC1=O [EXAMPLE 125, (R)-3-((S)-1-(4-(2-aminopyridin-4-yl)phenyl)ethyl)-6-(3-hydroxypropyl)-6-phenyl-1,3-oxazinan-2-one] | 4.3 | 0.6 | < 100 | 98.6 | 0.0068 | 12.3
Cc1cc(-c2ccc([C@H](C)N3CC[C@](CCCO)(c4ccc(F)cc4)OC3=O)cc2)nc(C)n1 [EXAMPLE 127, (R)-3-((S)-1-(4-(2,6-dimethylpyrimidin-4-yl)phenyl)ethyl)-6-(4-fluorophenyl)-6-(3-hydroxypropyl)-1,3-oxazinan-2-one] | > 30 | 6.1 | < 100 | 93.7 | 0.0698 | 11.5
C[C@@H](c1ccc(-c2ccncn2)cc1)N1CC[C@](CCCO)(c2ccc(F)cc2)OC1=O [EXAMPLE 128, (R)-6-(4-fluorophenyl)-6-(3-hydroxypropyl)-3-((S)-1-(4-(pyrimidin-4-yl)phenyl)ethyl)-1,3-oxazinan-2-one] | 3.3 | 1.1 | < 100 | 96.5 | 0.0085 | 
C[C@@H](c1ccc(-c2cncnc2)cc1)N1CC[C@](CCCO)(c2ccc(F)cc2)OC1=O [EXAMPLE 129, (R)-6-(4-fluorophenyl)-6-(3-hydroxypropyl)-3-((S)-1-(4-(pyrimidin-5-yl)phenyl)ethyl)-1,3-oxazinan-2-one] | 28.3 | 4.3 | < 100 | 93.9 | 0.0173 | 4.1
C[C@@H](c1ccc(-c2cccnn2)cc1)N1CC[C@](CCCO)(c2ccc(F)cc2)OC1=O [EXAMPLE 132, (R)-6-(4-fluorophenyl)-6-(3-hydroxypropyl)-3-((S)-1-(4-(pyridazin-3-yl)phenyl)ethyl)-1,3-oxazinan-2-one] | 18.3 | 6.1 | < 100 | 95.2 | 0.0189 | 3.1
C[C@@H](c1ccc(-c2ccc(C(N)=O)cn2)cc1)N1CC[C@](CCCO)(c2ccccc2)OC1=O [EXAMPLE 140, 6-(4-((S)-1-((R)-6-(3-hydroxypropyl)-2-oxo-6-phenyl-1,3-oxazinan-3-yl)ethyl)phenyl)nicotinamide] | 20.6 | 1.1 | < 100 | 98.7 | 0.0068 | 6.4
Cc1ccc(-c2ccc([C@H](C)N3CC[C@](CCCO)(c4ccc(F)cc4)OC3=O)cc2)c(C)n1 [EXAMPLE 141, (R)-3-((S)-1-(4-(2,6-dimethylpyridin-3-yl)phenyl)ethyl)-6-(4-fluorophenyl)-6-(3-hydroxypropyl)-1,3-oxazinan-2-one] | > 30 | 1 | < 100 | 102 | 0.0066 | 6.3
COc1cc(-c2ccc([C@H](C)N3CC[C@](CCCO)(c4ccc(F)cc4)OC3=O)cc2)ccn1 [EXAMPLE 147, (R)-6-(4-fluorophenyl)-6-(3-hydroxypropyl)-3-((S)-1-(4-(2-methoxypyridin-4-yl)phenyl)ethyl)-1,3-oxazinan-2-one] | 4.6 | 0.9 | < 100 | 98.7 | 0.0079 | 
C[C@@H](c1ccc(-c2cncc(F)c2)cc1)N1CC[C@](CCCO)(c2ccc(F)cc2)OC1=O [EXAMPLE 148, (R)-6-(4-fluorophenyl)-3-((S)-1-(4-(5-fluoropyridin-3-yl)phenyl)ethyl)-6-(3-hydroxypropyl)-1,3-oxazinan-2-one] | 1.7 | 0.7 | < 100 | 97.4 | 0.0048 | 7.3
